From PMC2688463 (Journal of medicinal chemistry, 2008)

Columns and labels:
[1] = test system: MDA-MB-231 breast cancer cell line; assay: Cell growth assay; type: cell-based, human
[2] = test system: SK-OV-3 ovarian cancer cell line; assay: Cell growth assay; type: cell-based, human
[3] = test system: MDA-MB-231 cell line; assay: Apoptosis assay; type: cell-based, human; settings: 100 nM, 48 hours
[4] = biological target: recombinant human XIAP BIR3 protein (Homo sapiens, UniProt P98170); assay: Cell-free caspase-9 functional assay; type: biochemical; settings: at concentrations as high as 100 μM
Sequence of recombinant human XIAP BIR3 protein (P98170 241-356): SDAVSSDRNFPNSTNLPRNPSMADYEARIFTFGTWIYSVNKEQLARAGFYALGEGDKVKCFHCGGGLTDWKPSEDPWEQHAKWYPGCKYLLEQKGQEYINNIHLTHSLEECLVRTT

For `CC[C@H](N)C(=O)N[C@H]1CCCC[C@H]2CC[C@@H](C(=O)NC(c3ccccc3)c3ccccc3)N2C1=O` [Compound 17, (3S,6S,11S)-6-((S)-2-Amino-butyrylamino)-5-oxo-decahydro-pyrrolo[1,2-α]azocine-3-carboxylic acid benzhydryl-amide], the “cellular activity (cell growth inhibition)” value [1] was “weak cellular activity” and the “cellular activity (cell growth inhibition)” value [2] was “weak cellular activity”.
With `CN[C@@H](C)C(=O)N[C@H]1CCCC[C@H]2CC[C@@H](C(=O)NC(c3ccccc3)c3ccccc3)N2C1=O` [Compound 20, (3S,6S,11S)-6-((S)-2-Methylamino-propionylamino)-5-oxo-decahydro-pyrrolo[1,2-α]azocine-3-carboxylic acid benzhydryl-amide] the induction of apoptosis [3] was “robust apoptosis”.
`CC[C@H](NC)C(=O)N[C@H]1CCCC[C@H]2CC[C@@H](C(=O)NC(c3ccccc3)c3ccccc3)N2C1=O` [Compound 21, (3S,6S,11S)-6-((S)-2-Methylamino-butyrylamino)-5-oxo-decahydro-pyrrolo[1,2-α]azocine-3-carboxylic acid benzhydryl-amide] was tested, and the induction of apoptosis [3] was “robust apoptosis”.
For `C[C@H](O)C(=O)N[C@H]1CCCC[C@H]2CC[C@@H](C(=O)NC(c3ccccc3)c3ccccc3)N2C1=O` [Compound 24], the “times less potent than compound 25 in cell growth inhibition” value [1] was over 30 times, the “restoration of caspase-9 activity” value [4] was “no significant effect” and the “times less potent than compound 25 in cell growth inhibition” value [2] was over 30 times.
